Test [1] addresses Receptor-type tyrosine-protein phosphatase F (Homo sapiens, UniProt P10586). Nature of the test: Inhibition of LAR (unknown origin).
Test [2] deals with T1, Tyrosine-protein phosphatase non-receptor type 1 (Homo sapiens) (UniProt P18031).
T1 sequence (whole entry): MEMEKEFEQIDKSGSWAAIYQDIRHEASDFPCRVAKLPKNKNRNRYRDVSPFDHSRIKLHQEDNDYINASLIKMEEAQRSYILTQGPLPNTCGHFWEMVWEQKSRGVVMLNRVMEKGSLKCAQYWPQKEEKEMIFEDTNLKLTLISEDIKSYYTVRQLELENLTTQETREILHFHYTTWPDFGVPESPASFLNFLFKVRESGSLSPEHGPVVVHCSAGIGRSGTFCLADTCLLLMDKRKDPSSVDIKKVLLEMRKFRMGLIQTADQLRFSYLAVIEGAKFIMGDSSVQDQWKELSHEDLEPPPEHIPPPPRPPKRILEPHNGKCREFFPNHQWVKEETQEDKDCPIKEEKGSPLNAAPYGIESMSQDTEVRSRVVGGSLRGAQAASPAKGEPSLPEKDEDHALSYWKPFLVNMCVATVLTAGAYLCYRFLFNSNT
Nature of the test: Inhibition of PTP1B (unknown origin) at 5 ug/ml.

In test [3] the target is T2, Tyrosine-protein phosphatase non-receptor type 1 (Homo sapiens, UniProt P18031).
T2 sequence (P18031 whole entry): T1 sequence (whole entry)
Nature of the test: Inhibition of PTP1B (unknown origin).

The target of test [4] is T3, M-phase inducer phosphatase 2 (Homo sapiens) (UniProt P30305).
T3 sequence (whole entry): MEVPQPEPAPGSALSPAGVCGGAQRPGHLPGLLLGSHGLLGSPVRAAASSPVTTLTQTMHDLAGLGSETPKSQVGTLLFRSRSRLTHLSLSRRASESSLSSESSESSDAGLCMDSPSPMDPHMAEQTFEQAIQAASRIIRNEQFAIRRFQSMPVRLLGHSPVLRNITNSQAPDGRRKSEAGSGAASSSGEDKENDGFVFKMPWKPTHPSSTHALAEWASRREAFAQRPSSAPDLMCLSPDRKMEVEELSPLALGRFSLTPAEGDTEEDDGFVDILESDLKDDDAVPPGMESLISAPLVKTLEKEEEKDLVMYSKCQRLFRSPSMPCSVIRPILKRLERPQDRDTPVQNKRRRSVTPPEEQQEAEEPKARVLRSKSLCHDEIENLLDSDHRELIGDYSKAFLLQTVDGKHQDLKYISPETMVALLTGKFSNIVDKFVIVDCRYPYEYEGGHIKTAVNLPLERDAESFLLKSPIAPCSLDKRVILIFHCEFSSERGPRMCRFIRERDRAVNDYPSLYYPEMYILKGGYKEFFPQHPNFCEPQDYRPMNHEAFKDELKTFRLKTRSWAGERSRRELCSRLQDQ
The test can be described thus: Inhibition of Cdc25B (unknown origin) at 5 ug/ml.

The target in test [5] is Tyrosine-protein phosphatase non-receptor type 6 (Homo sapiens, UniProt P29350). The test can be described thus: Inhibition of SHP1 (unknown origin).
Test [6] deals with T4, Tyrosine-protein phosphatase non-receptor type 11 (Homo sapiens, UniProt Q06124).
T4 sequence (Q06124 whole entry): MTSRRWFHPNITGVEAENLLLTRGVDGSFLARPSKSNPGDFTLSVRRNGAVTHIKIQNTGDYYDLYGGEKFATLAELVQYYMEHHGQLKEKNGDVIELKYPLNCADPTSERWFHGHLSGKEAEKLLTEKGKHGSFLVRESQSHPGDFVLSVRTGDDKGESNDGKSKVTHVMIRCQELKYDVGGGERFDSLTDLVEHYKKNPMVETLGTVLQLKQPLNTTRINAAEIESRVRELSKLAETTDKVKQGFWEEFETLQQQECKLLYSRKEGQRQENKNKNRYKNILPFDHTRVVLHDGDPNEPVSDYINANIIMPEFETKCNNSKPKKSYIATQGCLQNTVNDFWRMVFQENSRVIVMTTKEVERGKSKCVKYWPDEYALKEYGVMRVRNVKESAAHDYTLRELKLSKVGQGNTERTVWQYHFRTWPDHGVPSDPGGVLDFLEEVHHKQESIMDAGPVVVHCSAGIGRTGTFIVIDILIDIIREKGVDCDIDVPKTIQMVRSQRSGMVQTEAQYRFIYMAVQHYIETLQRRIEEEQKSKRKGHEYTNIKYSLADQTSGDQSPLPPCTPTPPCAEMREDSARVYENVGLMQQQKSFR
The test can be described thus: Inhibition of SHP2 (unknown origin).

For test [7], the target named is T5, Tyrosine-protein phosphatase non-receptor type 2 (Homo sapiens, UniProt P17706).
T5 sequence (P17706 whole entry): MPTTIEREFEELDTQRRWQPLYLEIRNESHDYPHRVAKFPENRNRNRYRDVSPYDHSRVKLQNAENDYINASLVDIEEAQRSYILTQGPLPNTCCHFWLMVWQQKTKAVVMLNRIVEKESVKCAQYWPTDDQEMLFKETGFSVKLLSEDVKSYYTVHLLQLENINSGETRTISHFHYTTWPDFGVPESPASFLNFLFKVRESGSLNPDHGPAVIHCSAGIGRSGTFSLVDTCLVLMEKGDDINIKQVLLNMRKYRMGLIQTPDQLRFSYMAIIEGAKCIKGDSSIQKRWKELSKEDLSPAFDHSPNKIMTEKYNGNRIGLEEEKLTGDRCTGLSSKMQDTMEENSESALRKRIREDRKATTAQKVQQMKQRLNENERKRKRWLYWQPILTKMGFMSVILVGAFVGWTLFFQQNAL
The test can be described thus: Inhibition of TCPTP (unknown origin).

Test [8] addresses T6, M-phase inducer phosphatase 2 (Homo sapiens, UniProt P30305).
T6 sequence (P30305 whole entry): T3 sequence (whole entry)
Nature of the test: Inhibition of Cdc25B (unknown origin).

The values below come from ChEMBL document CHEMBL3352415, “Synthesis and biological evaluation of novel thiadiazole amides as potent Cdc25B and PTP1B inhibitors” (Bioorg Med Chem Lett, 2014).

Chain of Receptor-type tyrosine-protein phosphatase F (P10586 whole entry): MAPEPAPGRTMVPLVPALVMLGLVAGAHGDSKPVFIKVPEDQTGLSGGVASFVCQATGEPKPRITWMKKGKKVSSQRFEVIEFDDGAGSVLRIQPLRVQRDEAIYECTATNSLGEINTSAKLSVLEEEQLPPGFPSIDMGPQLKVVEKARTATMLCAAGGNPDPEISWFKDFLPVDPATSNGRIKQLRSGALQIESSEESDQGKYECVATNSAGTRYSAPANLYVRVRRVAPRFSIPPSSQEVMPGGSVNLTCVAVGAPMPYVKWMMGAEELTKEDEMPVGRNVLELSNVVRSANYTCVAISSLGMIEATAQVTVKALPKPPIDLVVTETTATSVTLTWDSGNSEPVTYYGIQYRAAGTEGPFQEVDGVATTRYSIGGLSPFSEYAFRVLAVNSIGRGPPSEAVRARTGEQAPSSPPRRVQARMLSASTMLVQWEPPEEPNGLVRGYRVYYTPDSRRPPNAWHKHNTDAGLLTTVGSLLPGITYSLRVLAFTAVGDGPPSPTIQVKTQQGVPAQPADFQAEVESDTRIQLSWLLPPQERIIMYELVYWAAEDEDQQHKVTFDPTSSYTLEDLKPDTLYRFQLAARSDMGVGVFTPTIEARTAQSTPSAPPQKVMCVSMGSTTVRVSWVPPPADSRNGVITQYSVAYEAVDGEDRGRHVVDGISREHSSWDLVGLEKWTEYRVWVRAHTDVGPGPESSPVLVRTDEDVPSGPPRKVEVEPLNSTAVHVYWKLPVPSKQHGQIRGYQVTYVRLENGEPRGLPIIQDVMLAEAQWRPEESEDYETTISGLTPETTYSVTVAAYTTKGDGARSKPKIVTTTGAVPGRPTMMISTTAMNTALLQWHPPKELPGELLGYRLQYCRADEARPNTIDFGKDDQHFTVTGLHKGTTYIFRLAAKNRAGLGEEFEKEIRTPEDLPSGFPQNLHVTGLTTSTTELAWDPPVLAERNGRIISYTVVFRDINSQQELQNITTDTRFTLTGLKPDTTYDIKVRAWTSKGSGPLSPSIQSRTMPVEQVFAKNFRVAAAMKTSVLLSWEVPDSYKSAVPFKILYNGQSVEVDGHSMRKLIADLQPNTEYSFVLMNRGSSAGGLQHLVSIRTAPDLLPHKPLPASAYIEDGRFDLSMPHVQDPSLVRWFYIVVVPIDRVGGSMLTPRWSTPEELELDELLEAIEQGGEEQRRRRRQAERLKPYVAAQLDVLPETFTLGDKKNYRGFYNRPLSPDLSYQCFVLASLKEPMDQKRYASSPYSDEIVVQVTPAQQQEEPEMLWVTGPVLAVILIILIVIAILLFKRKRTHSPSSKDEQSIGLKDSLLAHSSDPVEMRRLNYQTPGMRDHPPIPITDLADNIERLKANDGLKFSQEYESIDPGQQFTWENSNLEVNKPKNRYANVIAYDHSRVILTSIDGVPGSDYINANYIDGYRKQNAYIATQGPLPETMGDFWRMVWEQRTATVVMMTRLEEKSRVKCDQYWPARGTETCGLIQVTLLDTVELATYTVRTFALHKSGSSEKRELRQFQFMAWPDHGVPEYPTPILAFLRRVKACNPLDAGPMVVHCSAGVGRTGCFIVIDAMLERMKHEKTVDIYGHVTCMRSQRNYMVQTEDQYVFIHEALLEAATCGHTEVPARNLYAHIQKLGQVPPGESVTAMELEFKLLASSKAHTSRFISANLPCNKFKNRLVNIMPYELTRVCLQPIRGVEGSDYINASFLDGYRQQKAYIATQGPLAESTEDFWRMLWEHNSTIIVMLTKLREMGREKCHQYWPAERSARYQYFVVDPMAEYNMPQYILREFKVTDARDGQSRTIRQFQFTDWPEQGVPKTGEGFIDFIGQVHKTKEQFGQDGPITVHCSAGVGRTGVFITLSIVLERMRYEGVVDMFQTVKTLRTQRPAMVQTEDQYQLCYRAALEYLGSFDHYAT
Chain of Tyrosine-protein phosphatase non-receptor type 6 (P29350 whole entry): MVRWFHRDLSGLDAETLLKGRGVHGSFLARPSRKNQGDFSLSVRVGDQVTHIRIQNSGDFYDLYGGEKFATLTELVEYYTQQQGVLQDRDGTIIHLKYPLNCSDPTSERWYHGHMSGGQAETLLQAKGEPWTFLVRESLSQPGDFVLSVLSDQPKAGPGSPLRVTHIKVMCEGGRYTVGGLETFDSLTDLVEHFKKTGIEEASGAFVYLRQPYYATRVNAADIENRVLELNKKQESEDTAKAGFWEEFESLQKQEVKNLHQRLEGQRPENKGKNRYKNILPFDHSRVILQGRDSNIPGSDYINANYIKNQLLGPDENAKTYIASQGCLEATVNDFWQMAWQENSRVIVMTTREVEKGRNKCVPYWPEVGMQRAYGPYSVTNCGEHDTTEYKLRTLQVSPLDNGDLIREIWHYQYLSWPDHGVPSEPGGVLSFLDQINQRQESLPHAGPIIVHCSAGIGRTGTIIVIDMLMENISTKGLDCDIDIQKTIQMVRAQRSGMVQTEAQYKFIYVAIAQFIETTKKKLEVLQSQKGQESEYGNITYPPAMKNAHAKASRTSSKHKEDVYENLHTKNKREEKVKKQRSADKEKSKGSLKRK

Regarding `COc1ccccc1C(=O)Nc1nnc(-c2ccc(Oc3ccc([N+](=O)[O-])cc3)cc2)s1`, the IC50 entry in test [1] is “Not Active”; in test [3], 13.1 µM; in test [5] it was “Not Active”; in test [6], “Not Active”; in test [7], “Not Active”. Further, the inhibition in test [2] came to 84.8%; in test [4], 26.1%.

As for `O=C(Cc1cccc2ccccc12)Nc1nnc(-c2ccc(Oc3ccc([N+](=O)[O-])cc3[N+](=O)[O-])cc2)s1`, the IC50 result was “Not Active” in test [1]; 6.07 µM in test [3]; 5.69 µM in test [8]; “Not Active” in test [5]; “Not Active” in test [6]; “Not Active” in test [7]. The inhibition stood at 82.1% in test [2] and 88.9% in test [4].

Turning to `O=C(Nc1nnc(-c2ccc(Oc3ccc([N+](=O)[O-])cc3[N+](=O)[O-])cc2)s1)c1ccc(Cl)cc1`, the IC50 entry was “Not Active” in test [1]; 4.44 µM in test [8]; “Not Active” in test [5]; “Not Active” in test [6]; “Not Active” in test [7]. Also, the figures for the inhibition in test [2] and in test [4] were 42.3% and 90.2%, respectively.

For `O=C(Nc1nnc(-c2ccc(Oc3ccc([N+](=O)[O-])cc3)cc2)s1)c1ccccc1F`, the concentration for half-maximal inhibition (IC50) entry is “Not Active” in test [1]; 17.1 µM in test [3]; 10.2 µM in test [8]; “Not Active” in test [5]; “Not Active” in test [6]; “Not Active” in test [7]. The inhibition in test [2] turned out to be 60.6%; in test [4] it was 63.6%.

In the case of `O=C(Nc1nnc(-c2ccc(Oc3ccc([N+](=O)[O-])cc3)cc2)s1)c1cccnc1`, the IC50 entry in test [1] is “Not Active”; in test [3], 10 µM; in test [8], 8.01 µM; in test [5] it was “Not Active”; in test [6] it was “Not Active”; in test [7] it was “Not Active”. The results for the inhibition in test [2] and in test [4] were 82.4% and 97%, respectively.

For the compound `O=C(Nc1nnc(-c2ccc(Oc3ccc([N+](=O)[O-])cc3)cc2)s1)c1ccccc1Cl`, the IC50 entry in test [1] was “Not Active”; in test [3] it was 13.8 µM; in test [5] it was “Not Active”; in test [6], “Not Active”; in test [7], “Not Active”. Also, the results for the inhibition in test [2] and in test [4] were 63% and 46.4%, respectively.

With `Cc1ccc(C(=O)Nc2nnc(-c3ccc(Oc4ccc([N+](=O)[O-])cc4)cc3)s2)cc1`, the IC50 result in test [1] was “Not Active”; in test [3] it was 19.1 µM; in test [5], “Not Active”; in test [6], “Not Active”; in test [7], “Not Active”. The inhibition in test [2] came out at 68.4%; in test [4], 25.8%.

On to `O=C(Nc1nnc(-c2ccc(Oc3ccc([N+](=O)[O-])cc3)cc2)s1)c1ccccc1[N+](=O)[O-]`, for which the IC50 result in test [1] was “Not Active”; in test [3] it was 9.17 µM; in test [5], “Not Active”; in test [6], “Not Active”; in test [7], “Not Active”. Also, the inhibition in test [2] came to 85%; in test [4], 13%.

On to SODIUM ORTHOVANAD, for which the IC50 came to 15.9 µg/mL in test [5] and 24.1 µg/mL in test [6].

For the compound `O=C(Nc1nnc(-c2ccc(Oc3ccc([N+](=O)[O-])cc3)cc2)s1)c1cccc([N+](=O)[O-])c1`, the IC50 entry in test [1] was “Not Active”; in test [3] it was 1.83 µM; in test [5], “Not Active”; in test [6], “Not Active”; in test [7], “Not Active”. Further, the inhibition in test [2] was 94.6%; in test [4], 24.2%.

On to `O=C(Cc1ccccc1)Nc1nnc(-c2ccc(Oc3ccc([N+](=O)[O-])cc3)cc2)s1`, for which the IC50 entry is “Not Active” in test [1]; 12.6 µM in test [3]; “Not Active” in test [5]; “Not Active” in test [6]; “Not Active” in test [7]. Moreover, the inhibition worked out at 54.9% in test [2] and 43.6% in test [4].

Take `COc1cccc(C(=O)Nc2nnc(-c3ccc(Oc4ccc([N+](=O)[O-])cc4)cc3)s2)c1`: the half-maximal inhibitory concentration (IC50) result in test [1], in test [5], in test [6] and in test [7] was “Not Active” each time. Moreover, the values for the inhibition in test [2] and in test [4] were 32.1% and 2.52%, respectively.

For `O=C(Nc1nnc(-c2ccc(Oc3ccc([N+](=O)[O-])cc3)cc2)s1)c1ccc(F)cc1`, the IC50 result in test [1] was “Not Active”; in test [3], 20 µM; in test [5], “Not Active”; in test [6], “Not Active”; in test [7], “Not Active”. Further, the values for the inhibition in test [2] and in test [4] were 77.1% and 31.7%, respectively.

As to `COc1ccccc1C(=O)Nc1nnc(-c2ccc(Oc3ccc([N+](=O)[O-])cc3[N+](=O)[O-])cc2)s1`, the IC50 result in test [1] was “Not Active”; in test [3], 3.81 µM; in test [5], “Not Active”; in test [6], “Not Active”; in test [7], “Not Active”. The figures for the inhibition in test [2] and in test [4] were 91.3% and 17.5%, respectively.

Regarding `O=C(Nc1nnc(-c2ccc(Oc3ccc([N+](=O)[O-])cc3)cc2)s1)c1cccc(F)c1`, the IC50 result in test [1] is “Not Active”; in test [8], 10.5 µM; in test [5], “Not Active”; in test [6], “Not Active”; in test [7], “Not Active”. The results for the inhibition in test [2] and in test [4] were 37.1% and 81.7%, respectively.

With `COc1ccc(C(=O)Nc2nnc(-c3ccc(Oc4ccc([N+](=O)[O-])cc4[N+](=O)[O-])cc3)s2)cc1`, the IC50 result in test [1] is “Not Active”; in test [3] it was 7.6 µM; in test [5], “Not Active”; in test [6] it was “Not Active”; in test [7], “Not Active”. The values for the inhibition in test [2] and in test [4] were 92.9% and 28.9%, respectively.

With `O=C(Nc1nnc(-c2ccc(Oc3ccc([N+](=O)[O-])cc3[N+](=O)[O-])cc2)s1)c1cccc(Cl)c1`, the IC50 entry in test [1] was “Not Active”; in test [3], 6.71 µM; in test [5], “Not Active”; in test [6] it was “Not Active”; in test [7] it was “Not Active”. The inhibition stood at 80.7% in test [2] and 37% in test [4].
